Results on 22 molecules are retold here after patent US7071220B2, “N-substituted benzothiophenesulfonamide derivatives” (Toa Eiyo Ltd., priority 2000, dated 2006).

Series [1] addresses T1, Simian chymase (Macaca mulatta, UniProt F6SAJ2).
T1 sequence (F6SAJ2 22-247 limits assumed): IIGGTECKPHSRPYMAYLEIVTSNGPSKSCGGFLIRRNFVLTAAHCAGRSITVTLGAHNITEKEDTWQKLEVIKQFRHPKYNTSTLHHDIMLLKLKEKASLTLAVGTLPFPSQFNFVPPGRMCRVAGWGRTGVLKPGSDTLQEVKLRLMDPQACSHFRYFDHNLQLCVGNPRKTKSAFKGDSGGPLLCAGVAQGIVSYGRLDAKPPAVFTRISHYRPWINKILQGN
The experiment in a line: Measurement of inhibitory activity of simian chymase (Ang I substrate, His-Leu/OPT fluorescence). The class given is biochemical, rhesus monkey. To be noted: chymase from heart of rhesus monkey; 120 minutes at 37° C.; read-out: Simian chymase IC50 value.
Protocol: (§5) That is, the activity was measured by reacting free His-Leu formed together with Ang II with o-phthalaldehyde (hereinafter, abbreviated as OPT) to prepare a fluorescent derivative and determining the amount quantitatively by means of a fluorophotometer.
(§6) First, 3.6 μmol of each test compound was weighed in a test tube and was dissolved into 3 mL of DMSO. The DMSO solution was diluted 1000-fold with 20 mmol/L Tris-hydrochloric acid buffer solution (pH 8.0) containing 0.01% Triton X-100 and 0.5 mol/L potassium chloride to prepare 1.2×10^−6 mol/L solution, which was successively diluted with the buffer solution to prepare test sample solutions having concentrations of 1.2×10^−6 mol/L to 1.2×10^−9 mol/L. To 500 μL of the test sample solution of each concentration or buffer solution was added 50 μL of an enzyme solution, followed by 10 minutes of pre-incubation at 37° C. Then, 50 μL of 0.1 mmol/L Ang I solution was added to initiate a reaction. Human angiotensin I (manufactured by SIGMA) was employed as Ang I. The enzyme solution to be used for the reaction was adjusted so as to hydrolyze about 60% of substrate under the conditions, and the reaction wherein a buffer solution containing no enzyme was carried out as a blind test. […] Thereafter, the reaction mixture was centrifuged at 4° C. at 3,000 rpm for 10 minutes and 2 mL of 2 mol/L sodium hydroxide and 1 mL of methanol were added to 1 mL of the resulting supernatant. […] The measurement was repeated twice for each sample and blind test. The fluorescence intensity obtained by subtracting the average value at blind test from the average value thereof was determined as chymase activity.
(§7) In this regard, an enzymatic reaction using a buffer solution instead of the test sample solution was carried out as a control, and inhibitory ratio of chymase activity was determined as percentage by dividing the difference of subtraction of the activity at the addition of the test compound from the chymase activity at the control by the chymase activity at the control.

In series [2] the target is T2, Human chymase (Homo sapiens, UniProt P23946).
T2 sequence (P23946 22-247): T1 sequence (F6SAJ2 22-247 limits assumed) with S29F, K63E, Y159D, L201S, K221Q, G225A
As to the kind of experiment: Measurement of inhibitory activity of human chymase (Ang I substrate, His-Leu/OPT fluorescence).
Protocol: as §5, §6, §7

Series [3] addresses T3, Chymotrypsin (Bos taurus, UniProt P00766).
T3 construct: Chymotrypsin Type I-S derived from bovine pancreas; purchased SIGMA Type I-S; host or cells: bovine pancreas
The experiment in a line: Measurement of chymotrypsin inhibitory activity (Suc-Ala-Ala-Pro-Phe-pNA). The format is biochemical. To be noted: Chymotrypsin Type I-S from bovine pancreas; 30 minutes at 37° C. As to the method:
(§1) Measurement of Cathepsin G Inhibitory Activity and Chymotrypsin Inhibitory Activity
(§2) Each activity of cathepsin G or chymotrypsin was measured by determining the amount of free p-nitroaniline quantitatively using a synthetic substrate that is colorless and yields colored product upon hydrolysis, by means of a spectrophotometer. Chymotrypsin Type I-S derived from bovine pancreas was purchased from SIGMA. As cathepsin G, the product of Elastin Products Company, Inc. derived from human purulent sputum was used. Suc-Ala-Ala-Pro-Phe-pNA (manufactured by SIGMA) was used as the synthetic substrate. An inhibitory effect of a compound on each enzyme was determined by the following method.
(§3) Each test compound (5 μmol) was weighed in a test tube and dissolved into 2 mL of DMSO. […] Then, 200 μL of 1 mmol/L substrate solution was added to initiate en enzymatic reaction under a temperature of 37° C.
(§4) Based on each inhibitory ratio, IC50 value was calculated.

Series [4] addresses T4, Cathepsin G (Homo sapiens, UniProt P08311).
T4 construct: the product of Elastin Products Company, Inc. derived from human purulent sputum was used; purchased Elastin Products Company, Inc; host or cells: human purulent sputum
T4 sequence (P08311 21-244): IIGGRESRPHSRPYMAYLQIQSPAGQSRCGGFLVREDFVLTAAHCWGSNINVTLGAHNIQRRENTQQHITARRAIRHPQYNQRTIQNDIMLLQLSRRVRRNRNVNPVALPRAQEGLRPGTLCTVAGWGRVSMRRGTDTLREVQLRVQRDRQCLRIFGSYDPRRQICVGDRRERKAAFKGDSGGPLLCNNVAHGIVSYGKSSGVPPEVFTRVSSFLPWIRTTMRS
As to the kind of experiment: Measurement of cathepsin G inhibitory activity (Suc-Ala-Ala-Pro-Phe-pNA). The class given is biochemical. The note with it: cathepsin G from human purulent sputum; 60 minutes at 37° C. As to the method: as §1, §2, §3, §4

Series [5] in a line: Stability in rat plasma. The class given is in vitro ADME. The note with it: 10 μg/mL, 37° C., 60 minutes, HPLC. As to the method: Stability of the compounds of the invention in rat plasma was investigated.
Male SD rats (7-week-old) were anesthetized with ether under over-night fasting conditions and, after an abdominal part was incised, blood was collected from aorta abdominalis using a heparinized disposable plastic syringe. The blood was centrifuged under cooling to collect a supernatant plasma. The collected plasma was stored under freezing at −30° C. and was melted before use. After a test compound was dissolved in DMSO, the solution was added to 200 μL of the plasma so as to be 10 μg/mL, followed by incubation at 37° C. After 60 minutes, the mixture was acidified by adding 200 μL of 0.1 mol/L hydrochloric acid, and then extracted twice with 2 mL of ethyl acetate. The resulting organic layer was evaporated to dryness under a nitrogen gas flow and the residue was dissolved into 200 μL of acetonitrile to prepare a sample solution. On the other hand, the test compound was dissolved into 1% acetonitrile solution of DMSO so as to be 10 μg/mL as a control solution. The sample solution and control solution was investigated by high performance liquid chromatography (hereinafter, abbreviated as HPLC). Residual ratio (%) was determined as percentage by dividing the peak area of the sample solution by the peak area of the control solution.
Column: Waters Nova Pack C18 (inner diameter: 3.9 mm, length: 150 mm)
Mobile phase A: acetonitrile/water=10/90
Mobile phase B: acetonitrile/methanol=50/50
Eluent: Mobile phase A-mobile phase B (100/0 to 0/100, linear gradient, 50 minutes)
Amount of injection: 50 μL

[6] abbreviates: read-out: Human cymase IC50 value, human chymase from silkworms infected with baculovirus, 120 minutes at 37° C.

Each structure is given as a SMILES string. Positions count from the first letter of the chain named. Where a name gives a salt, the structure may show the parent alone. Read-outs that look alike come from different tables or passages of the source.

As to `Cc1c(S(=O)(=O)Nc2ccc(C(=O)OC(C)(C)C)cc2S(C)(=O)=O)sc2ccc(Cl)cc12` [Compound 3, tert-butyl 4-(5-chloro-3-methylbenzo[b]thiophene-2-sulfonylamino)-3-methanesulfonylbenzoate], in series [1], the half-inhibitory concentration (IC50) is 178 nM.
Take `Cc1c(S(=O)(=O)Nc2ccc(C(=O)NCC(=O)O)cc2S(C)(=O)=O)sc2ccc(Cl)cc12` (as salt: sodium) [Compound 52]: the melting point is 290 to 292 °C.
The molecule `Cc1c(S(=O)(=O)Nc2ccc(-c3ncco3)cc2S(C)(=O)=O)sc2ccc(F)cc12` [Compound 73, 5-fluoro-N-[2-methanesulfonyl-4-(oxazol-2-yl)phenyl]-3-methylbenzo[b]thiophene-2-sulfonamide] returned an IC50 in series [2] of 55 nM.
Consider `COC(=O)c1cc(S(C)(=O)=O)c(NS(=O)(=O)c2sc3ccc(Cl)cc3c2C)cc1C` [Compound 5, Methyl 4-(5-chloro-3-methylbenzo[b]thiophene-2-sulfonylamino)-5-methanesulfonyl-2-methylbenzoate], for which the values for the half-maximal inhibitory concentration (IC50) in series [1], in series [3] and in series [4] were 150 nM, over 1000 nM and over 1000 nM, respectively. Further, in series [5], the “Residual ratio in rat plasma” value worked out at 85.2%.
On to `Cc1coc(-c2ccc(NS(=O)(=O)c3sc4ccc(F)cc4c3C)c(S(C)(=O)=O)c2)n1` [Compound 68], for which the melting point is 206 to 208 °C. In series [2], this molecule had an IC50 of 101 nM.
As for `CC(C)C[C@H](NC(=O)[C@@H](NC(=O)N[C@@H](Cc1ccccc1)C(=O)O)[C@@H]1CCN=C(N)N1)C(=O)N[C@H](C=O)Cc1ccccc1` [Chymostatin, reference compound], the IC50 in series [4] is 5.99 nM.
In the case of `CCOC(=O)c1ccc(NS(=O)(=O)c2sc3ccc(Cl)cc3c2C)c(S(C)(=O)=O)c1` [Compound 2, Ethyl 4-(5-chloro-3-methylbenzo[b]thiophene-2-sulfonylamino)-3-methanesulfonylbenzoate], in series [1], the IC50 amounted to 42 nM.
In the case of `CC(=O)c1ccc(NS(=O)(=O)c2sc3ccc(Cl)cc3c2C)c(S(C)(=O)=O)c1` [Compound 11, N-(4-acetyl-2-methanesulfonylphenyl)-5-chloro-3-methylbenzo[b]thiophene-2-sulfonamide], the IC50 in series [1] worked out at 100 nM; in series [2], 271 nM.
Consider `COC(=O)c1ccc(NS(=O)(=O)c2sc3ccc(Cl)cc3c2C)c([N+](=O)[O-])c1` [Compound 8, Methyl 4-(5-chloro-3-methylbenzo[b]thiophene-2-sulfonylamino)-3-nitrobenzoate], for which the IC50 in series [3] and in series [4] was over 10000 nM throughout.
As to `CCS(=O)(=O)c1cc(C(=O)OC)ccc1NS(=O)(=O)c1sc2ccc(Cl)cc2c1C` [Compound 4, Methyl 4-(5-chloro-3-methylbenzo[b]thiophene-2-sulfonylamino)-3-ethanesulfonylbenzoate], the IC50 was 111 nM in series [1], over 10000 nM in series [3] and over 10000 nM in series [4]. Moreover, the “Residual ratio in rat plasma” value in series [5] was found to be 93.5%.
`COC(=O)c1ccc(NS(=O)(=O)c2sc3ccccc3c2C)c(S(C)(=O)=O)c1` [Compound 20, methyl 4-(3-methylbenzo[b]thiophene-2-sulfonylamino)-3-methanesulfonylbenzoate]: the results for the IC50 in series [1] and in series [2] (setting [6]) were 39 nM and 305 nM, respectively.
On to `CCOC(=O)c1ccc(NS(=O)(=O)c2sc3ccc(Cl)cc3c2C)cc1` [Compound 14, ethyl 4-(5-chloro-3-methylbenzo[b]thiophene-2-sulfonylamino)benzoate], for which the IC50 was 278 nM in series [1], over 10000 nM in series [3] and over 10000 nM in series [4]. For the same molecule, in series [5], the “Residual ratio in rat plasma” value is 79.2%.
With `Cc1c(S(=O)(=O)Nc2ccc(-c3nc(CO)cs3)cc2S(C)(=O)=O)sc2ccc(F)cc12` [Compound 63, 5-fluoro-N-[4-(4-hydroxymethylthiazol-2-yl)-2-methanesulfonylphenyl]-3-methylbenzo[b]thiophene-2-sulfonamide], half-maximal inhibition in series [2] (IC50) required 20 nM.
As for `Cc1c(S(=O)(=O)Nc2ccc(-c3nc(C(=O)O)co3)cc2S(C)(=O)=O)sc2ccc(Cl)cc12` [Compound 26, 2-[4-(5-chloro-3-methylbenzo[b]thiophene-2-sulfonylamino)-3-methanesulfonylphenyl]oxazole-4-carboxylic acid], the IC50 was 10 nM in series [1], over 10000 nM in series [3], over 10000 nM in series [4] and 150 nM in series [2]. The “Residual ratio in rat plasma” value in series [5] amounted to 100%.
As to `COC(=O)c1ccc(NS(=O)(=O)c2sc3ccc(Cl)cc3c2C)c(S(C)(=O)=O)c1` [Compound 1, Methyl 4-(5-chloro-3-methylbenzo[b]thiophene-2-sulfonylamino)-3-methanesulfonylbenzoate], the IC50 was 50 nM in series [1], over 10000 nM in series [3], over 10000 nM in series [4] and 203 nM in series [2] (setting [6]). For the same molecule, the “Residual ratio in rat plasma” value in series [5] was determined as 93.9%.
In the case of `COc1oc(-c2ccc(NS(=O)(=O)c3sc4ccc(F)cc4c3C)c(S(C)(=O)=O)c2)nc1C` [Compound 56, 5-fluoro-N-[2-methanesulfonyl-4-(5-methoxy-4-methyloxazol-2-yl)phenyl]-3-methylbenzo[b]thiophene-2-sulfonamide], in series [2], the IC50 came to 102 nM.
`COC(=O)c1coc(-c2ccc(NS(=O)(=O)c3sc4ccc(Cl)cc4c3C)c(S(C)(=O)=O)c2)n1` [Compound 25, methyl 2-[4-(5-chloro-3-methylbenzo[b]thiophene-2-sulfonylamino)-3-methanesulfonylphenyl]oxazole-4-carboxylate]: the melting point lay within 296 to 298 °C. In addition, in series [1], the half-maximal inhibitory concentration (IC50) is 75 nM.
Turning to `CS/C(=C\c1ccc(NS(=O)(=O)c2sc3ccc(F)cc3c2C)c(S(C)(=O)=O)c1)[S+](C)[O-]` (centres unmarked) [Compound 72, 5-fluoro-N-[2-methanesulfonyl-4-((E)-2-methanesulfinyl-2-methylsulfanylvinyl)phenyl]-3-methylbenzo[b]thiophene-2-sulfonamide], the IC50 in series [2] was 20 nM.
Regarding `Cc1c(S(=O)(=O)Nc2ccc(CO)cc2S(C)(=O)=O)sc2ccc(Cl)cc12` [Compound 13, 5-chloro-N-(4-hydroxymethyl-2-methanesulfonylphenyl)-3-methylbenzo[b]thiophene-2-sulfonamide], in series [1], the IC50 came to 271 nM.
Consider `Cc1c(S(=O)(=O)Nc2ccc(C(=O)NCC(=O)O)cc2S(C)(=O)=O)sc2ccc(Cl)cc12` [Compound 52], for which the IC50 in series [1] was 157 nM.
`Cc1c(S(=O)(=O)Nc2ccc(-c3nc(CO)co3)cc2S(C)(=O)=O)sc2ccc(F)cc12` [Compound 66]: the melting point lay within 242 to 244 °C. Moreover, half-maximal inhibition in series [2] (IC50) required 39 nM.
Turning to `CC(=O)c1ccc(NS(=O)(=O)c2sc3ccc(F)cc3c2C)c(S(C)(=O)=O)c1` [Compound 19, N-(4-acetyl-2-methanesulfonylphenyl)-5-fluoro-3-methylbenzo[b]thiophene-2-sulfonamide], the IC50 in series [1] turned out to be 20 nM; in series [2] (setting [6]), 82 nM. For the same molecule, the “Residual ratio in rat plasma” value in series [5] is 96.2%.
